Literature values as cited in US20020039567A1, “Methods of treating bone or cartilage conditions by the administration of creatine” (priority 1998, published 2002).

Columns and labels:
[1] = test system: chick limb bud mesenchymal cells; conditions: cited from earlier work; for mineralization: addition of 1 and 2 mM ATP or 2 mM PCr; for rate of cell proliferation, rate of matrix synthesis, mean crystallite length, rate of mineral deposition: contrasted with cultures supplemented with inorganic phosphate
[2] = test system: CK activity in rat epiphyseal cartilage cells; conditions: cited from earlier work
[3] = test system: CK activity in chondroblasts and osteoblasts; conditions: cited from earlier work
embryonic chick femora = conditions: cited from earlier work
SaOS-2 cells = conditions: cited from earlier work

Compound: Nc1ncnc2c1ncn2[C@@H]1O[C@H](COP(=O)(O)OP(=O)(O)OP(=O)(O)O)[C@@H](O)[C@H]1O [ATP]
- mineralization [1]: promoted
- rate of cell proliferation, rate of matrix synthesis, mean crystallite length, rate of mineral deposition [1]: does not alter

Compound: C[C@]12CC[C@@H]3c4ccc(O)cc4CC[C@H]3[C@@H]1CC[C@@H]2O [E2, 17b-estradiol]
- increase in CK activity [2]: 40%

Compound: CC/C(=C(\c1ccccc1)c1ccc(OCCN(C)C)cc1)c1ccccc1 [tamoxifen]
- effect of tamoxifen by itself ([3]; high concentrations): stimulatory effects
- effect of E2 in presence of tamoxifen ([3]; high levels of tamoxifen): inhibited

Compound: phosphocreatine [PCr]
- perichondral ossification in the diaphysis (embryonic chick femora; 0.1 mM in chick embryo extract with 20% horse serum): accelerated
- deposition of calcium in the cartilage matrix of the epiphysis (embryonic chick femora; very crude preparations at 0.1 mM in chick embryo extract with 20% horse serum): accelerated
- mineralization [1]: promoted
- rate of cell proliferation, rate of matrix synthesis, mean crystallite length, rate of mineral deposition [1]: does not alter
- alkaline phosphatase (ALP) activity (SaOS-2 cells): increases
